The values below are quoted from earlier work in US4966768A, “Sustained release etodolac” (priority 1988, dated 1990).

Entries after “also recorded” stand apart in the source; their conditions may differ.

One data set deals with adjuvant arthirtis. The note with it: reported in U.S. Pat. No. 4,533,551.
The conditions of data set [1]: in vivo.

On to `CCc1cccc2c3c([nH]c12)C(CC)(CC(=O)O)OCC3` (centres unmarked) [Etodolac, 1,8-diethyl-1,3,4,9-tetrahydropyrano[3,4-b] indole-1-acetic acid], for which the “activity in adjuvant arthritis (in words)” value with adjuvant arthirtis was “active in the treatment of adjuvant arthirtis”. The “reported pharmacological properties (in words)” value in data set [1] is “analgesic and anti-inflammatory properties”. In addition, the “aqueous solubility (in words)” value (below pH 3) is “very low and pH independent below pH 3; also recorded: water insoluble to an appreciable extent below pH 3”. For the same molecule, the “difference in solubility between pH 5 and 7” value (between pH 5 to 7) is given as “thirty”. Moreover, the “aqueous solubility with rising pH (in words)” value (up to pH 5 and from pH 5 to 7) was “gradually increases with rising pH up to 5 and linearly increases with increasing pH to 7”.
